Consider 59 molecules from patent US8975235B2, “Lysophosphatidic acid receptor antagonists” (InterMune, Inc., priority 2011, dated 2015).

A value given as a limit tells only on which side of the number the result lay.

Sequence of Human LPA1 (Q92633 whole entry): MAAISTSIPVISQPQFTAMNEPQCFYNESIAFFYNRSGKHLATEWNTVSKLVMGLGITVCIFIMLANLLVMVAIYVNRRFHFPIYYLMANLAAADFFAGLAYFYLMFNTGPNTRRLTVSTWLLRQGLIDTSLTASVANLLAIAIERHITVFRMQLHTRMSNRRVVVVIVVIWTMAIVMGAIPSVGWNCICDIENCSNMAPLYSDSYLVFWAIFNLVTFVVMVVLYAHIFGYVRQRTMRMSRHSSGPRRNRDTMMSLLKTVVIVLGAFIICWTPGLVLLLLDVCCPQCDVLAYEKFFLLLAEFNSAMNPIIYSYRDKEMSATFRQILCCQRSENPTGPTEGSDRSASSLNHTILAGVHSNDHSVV

For the test, the target named is Human LPA1 (Homo sapiens, UniProt Q92633). The test is described as follows: Beta-Arrestin based assay for human LPA1R antagonists (PathHunter). The format is cell-based. Also on record: host or cells: CHO. As to conditions: CHO cells stably expressing ProLink tagged human LPA1R; agonist LPA 0.5 micromolar. The method, then:
Beta-Arrestin Based Assays for Human LPA1R Antagonists and Agonists
A CHO cell line stably expressing the ProLink™ tagged human LPA1R was obtained from DiscoverX Inc, Fremont, Calif. In this system, β-Arrestin was fused to an N-terminal deletion mutant of β-galactosidase (termed the enzyme acceptor or EA), the human LPA1R was fused to a smaller (42 amino acids) weakly complementing fragment termed ProLink™. […] Cell handling and assays were performed according to protocols specified in the PathHunter® assays kits (DiscoverX, Fremont, Calif.). Assays were performed in quadruplicate in white 384 well plates. End point luminescence data were plotted and fit to a 4 parameter logistic function to obtain IC50 values. For antagonist assays, an […] concentration of agonist (LPA) equal to 0.5 micromolar was used.
For `Cc1noc(-c2ccc(-c3ccc(C(C(=O)O)c4ccccc4)cc3)cc2)c1NC(=O)O[C@H](C)c1ccccc1Cl` (single isomer, unassigned) [Compound 16], the EC50 was less than 50 nM. With `Cc1noc(-c2ccc(-c3ccc4c(c3)CCC4C(=O)O)cc2)c1NC(=O)O[C@H](C)c1ccccc1Cl` (single isomer, unassigned) [Compound 26] the figure was less than 50 nM; with `Cc1nsc(-c2ccc(-c3ccc(C4(C(=O)O)CC4)cc3)cc2)c1NC(=O)O[C@H](C)C1=C(Cl)CCC1` (single isomer, unassigned) [Compound 216], less than 50 nM; with `Cc1nsc(-c2ccc(-c3ccc(C4(C(=O)O)CC4)cc3)cc2)c1NC(=O)O[C@@H](C)C1=C(Cl)CCC1` (single isomer, unassigned) [Compound 217], greater than 500 nM. On to `CCOC(=O)Cc1ccc(-c2ccc(-c3onc(C)c3NS(=O)(=O)Cc3ccccc3)cc2)cc1` [Compound 15], for which the EC50 is greater than 500 nM. Turning to `Cc1noc(-c2ccc(-c3ccc(CC(=O)O)cc3)cc2)c1NS(=O)(=O)Cc1ccccc1` [Compound 17], the EC50 was greater than 500 nM. Molecule `CCOC(=O)Cc1ccc(-c2ccc(-c3onc(C)c3NS(=O)(=O)c3ccccc3)cc2)cc1` [Compound 18] displayed an EC50 greater than 500 nM. `Cc1noc(-c2ccc(-c3ccc4c(c3)CCCC4C(=O)O)cc2)c1NC(=O)O[C@H](C)c1ccccc1Cl` (some centres unmarked) [Compound 21]: the EC50 is 50 to 500 nM. With `Cc1noc(-c2ccc(Nc3ccccc3C(=O)O)cc2)c1NC(=O)O[C@H](C)c1ccccc1Cl` [Compound 22], the EC50 is greater than 500 nM. The molecule `Cc1noc(-c2ccc(-c3ccc4c(c3)CCCC4C(=O)O)cc2)c1NC(=O)O[C@H](C)c1ccccc1Cl` (some centres unmarked) [Compound 23] had an EC50 of 50 to 500 nM. On to `Cc1noc(-c2ccc(-c3ccc4c(c3)CCCC4C(=O)O)cc2)c1NC(=O)O[C@H](C)c1ccccc1Cl` (some centres unmarked) [Compound 24], for which the EC50 was in the range of 50 to 500 nM. With `Cc1noc(-c2ccc(-c3ccc4c(c3)CCC4C(=O)O)cc2)c1NC(=O)O[C@H](C)c1ccccc1Cl` (some centres unmarked) [Compound 27] the figure was less than 50 nM; with `C[C@@H](OC(=O)Nc1c(-c2ccc(-c3ccc(CC(=O)O)cc3)cc2)oc2ccccc12)c1ccccc1Cl` [Compound 31], 50 to 500 nM. Take `Cc1noc(-c2ccc(-c3ccc(C4(C(=O)O)CN(Cc5ccccc5)C4)cc3)cc2)c1NC(=O)O[C@H](C)c1ccccc1Cl` [Compound 33]: the EC50 is less than 50 nM.

Molecule `Cc1noc(-c2ccc(-c3ccc(C4(C(=O)O)CNC4)cc3)cc2)c1NC(=O)O[C@H](C)c1ccccc1Cl` [Compound 34] showed an EC50 greater than 500 nM. `COC(=O)N1CC(C(=O)O)(c2ccc(-c3ccc(-c4onc(C)c4NC(=O)O[C@H](C)c4ccccc4Cl)cc3)cc2)C1` [Compound 37] yielded an EC50 of less than 50 nM.

Regarding `Cc1noc(-c2ccc(-c3ccc(C4(C(=O)O)CN(S(C)(=O)=O)C4)cc3)cc2)c1NC(=O)O[C@H](C)c1ccccc1Cl` [Compound 38], the EC50 was less than 50 nM.

`Cc1noc(-c2ccc(-c3ccc(C4(C(=O)O)CN(C)C4)cc3)cc2)c1NC(=O)O[C@H](C)c1ccccc1Cl` [Compound 39] yielded a concentration giving a half-maximal response (EC50) of 50 to 500 nM. The figure for `CCNC(=O)N1CC(C(=O)O)(c2ccc(-c3ccc(-c4onc(C)c4NC(=O)O[C@H](C)c4ccccc4Cl)cc3)cc2)C1` [Compound 40] is 50 to 500 nM. The figure for `C[C@@H](OC(=O)Nc1c(-c2ccc(-c3ccc(C4(C(=O)O)CC4)cc3)cc2)oc2ccccc12)c1ccccc1Cl` [Compound 42] is less than 50 nM; for `Cc1cccc2c(NC(=O)O[C@H](C)c3ccccc3Cl)c(-c3ccc(-c4ccc(C5(C(=O)O)CC5)cc4)cc3)oc12` [Compound 51] it is greater than 500 nM.

With `Cc1ccc2c(NC(=O)O[C@H](C)c3ccccc3Cl)c(-c3ccc(-c4ccc(C5(C(=O)O)CC5)cc4)cc3)oc2c1` [Compound 52], the half-maximal effective concentration (EC50) is greater than 500 nM. With `Cc1ccc2oc(-c3ccc(-c4ccc(C5(C(=O)O)CC5)cc4)cc3)c(NC(=O)O[C@H](C)c3ccccc3Cl)c2c1` [Compound 53] the figure was greater than 500 nM; with `C[C@@H](OC(=O)Nc1cnnn1-c1ccc(-c2ccc(C3(C(=O)O)CC3)cc2)cc1)c1ccccc1` [Compound 66], 50 to 500 nM. As to `Cc1nsc(-c2ccc(-c3ccc(C(C(=O)O)c4ccccc4)cc3)cc2)c1NC(=O)O[C@H](C)c1ccccc1Cl` (some centres unmarked) [Compound 69], the concentration giving a half-maximal response (EC50) was less than 50 nM. On to `Cc1nsc(-c2ccc(-c3ccc(C4(C(=O)O)CC4)cc3)cc2)c1NC(=O)OCc1ccccn1` [Compound 72], for which the EC50 is greater than 500 nM.

The molecule `Cc1nsc(-c2ccc(-c3ccc(C4(C(=O)O)CC4)cc3)cc2)c1NC(=O)OCc1ccccc1F` [Compound 73] showed a concentration giving a half-maximal response (EC50) of 50 to 500 nM. The figure for `Cc1noc(-c2ccc(-c3ccc(C4(C(=O)O)CC4)cc3)cc2)c1NC(=O)OC1(c2ccccc2)CC1` [Compound 76] is 50 to 500 nM; for `Cc1noc2cc(-c3ccc(CC(=O)O)cc3)cc(NC(=O)O[C@H](C)c3ccccc3Cl)c12` [Compound 77] it is greater than 500 nM; for `Cc1nsc(-c2ccc(-c3ccc(C4(C(=O)O)CC4)cc3)cc2)c1NC(=O)O[C@H](C)c1ccccn1` [Compound 84] it is 50 to 500 nM.

For the molecule `Cc1ccccc1COC(=O)Nc1c(C)nsc1-c1ccc(-c2ccc(C3(C(=O)O)CC3)cc2)cc1` [Compound 85], the EC50 fell in the range of 50 to 500 nM. The figure for `Cc1nsc(-c2ccc3cc(C#CC4(C(=O)O)CC4)ccc3c2)c1NC(=O)O[C@H](C)c1ccccc1Cl` [Compound 87] is less than 50 nM; for `Cc1nsc(-c2ccc3cc(C#CC4(C(=O)O)CC4)ccc3c2)c1NC(=O)O[C@H](C)c1ccccc1` [Compound 88] it is 50 to 500 nM. In turn, `Cc1nsc(-c2ccc3cc(C#CC4(C(=O)O)CC4)ccc3c2)c1NC(=O)OCc1ccccc1` [Compound 89] displayed an EC50 of 50 to 500 nM. With `Cc1nsc(C#Cc2ccc3cc(CC(=O)O)ccc3c2)c1NC(=O)O[C@H](C)c1ccccc1` [Compound 90] the figure was 50 to 500 nM; with `Cc1nsc(C#Cc2ccc3cc(CC(=O)O)ccc3c2)c1NC(=O)OCc1ccccc1` [Compound 91], greater than 500 nM; with `Cc1nsc(C#Cc2ccc3cc(C4(C(=O)O)CC4)ccc3c2)c1NC(=O)O[C@H](C)c1ccccc1` [Compound 92], less than 50 nM. The figure for `Cc1nsc(C#Cc2ccc3cc(C4(C(=O)O)CC4)ccc3c2)c1NC(=O)O[C@H](C)c1ccccc1Cl` [Compound 93] is less than 50 nM; for `Cc1nsc(C#Cc2ccc3cc(CC(=O)O)ccc3c2)c1NC(=O)O[C@H](C)c1ccccc1Cl` [Compound 94] it is 50 to 500 nM. The figure for `Cc1nsc(-c2ccc(-c3ccc(C4(C(=O)O)CC4)cc3)cc2)c1NC(=O)OC(C)C` [Compound 95] is greater than 500 nM; for `Cc1nsc(-c2ccc(-c3ccc(C4(C(=O)O)CC4)cc3)cc2)c1NC(=O)OCc1cccc(F)c1` [Compound 96] it is less than 50 nM; for `Cc1nsc(-c2ccc(-c3ccc(C4(C(=O)O)CC4)cc3)cc2)c1NC(=O)OCc1cccc(Cl)c1` [Compound 97] it is less than 50 nM. Regarding `Cc1nsc(-c2ccc(-c3ccc(C4(C(=O)O)CC4)cc3)cc2)c1NC(=O)OCc1ccc(F)cc1` [Compound 98], the EC50 lay in the range of 50 to 500 nM.

With `Cc1nsc(-c2ccc(-c3ccc(C4(C(=O)O)CC4)cc3)cc2)c1NC(=O)OCc1ccc(Cl)cc1Cl` [Compound 99], the EC50 is greater than 500 nM.

For the molecule `Cc1nsc(-c2ccc(-c3ccc(C4(C(=O)O)CC4)cc3)cc2)c1NC(=O)OCc1ccc(Cl)cc1` [Compound 100], the EC50 is 50 to 500 nM. With `Cc1nsc(-c2ccc(-c3ccc(C4(C(=O)O)CC4)cc3)cc2)c1NC(=O)OCc1cccc(Cl)c1Cl` [Compound 101] the figure was greater than 500 nM; with `Cc1nsc(-c2ccc(-c3ccc(C4(C(=O)O)CC4)cc3)cc2)c1NC(=O)OCc1ccc(F)cc1Cl` [Compound 102], 50 to 500 nM; with `Cc1nsc(-c2ccc(-c3ccc(C4(C(=O)O)CC4)cc3)cc2)c1NC(=O)OCc1cccc(F)c1Cl` [Compound 103], 50 to 500 nM.

With `Cc1nsc(-c2ccc(-c3ccc4c(ccn4CC(=O)O)c3)cc2)c1NC(=O)O[C@H](C)c1ccccc1Cl` [Compound 104], the EC50 was greater than 500 nM. Regarding `C[C@@H](OC(=O)Nc1scnc1-c1ccc(-c2ccc(C3(C(=O)O)CC3)cc2)cc1)c1ccccc1` [Compound 106], the concentration giving a half-maximal response (EC50) was 50 to 500 nM. In turn, `O=C(Nc1scnc1-c1ccc(-c2ccc(C3(C(=O)O)CC3)cc2)cc1)OCc1ccccc1` [Compound 108] had an EC50 of 50 to 500 nM.

Molecule `C[C@@H](OC(=O)Nc1ncsc1-c1ccc(-c2ccc(C3(C(=O)O)CC3)cc2)cc1)c1ccccc1` [Compound 109] displayed an EC50 of 50 to 500 nM. With `C[C@@H](OC(=O)Nc1ncsc1-c1ccc(-c2ccc(C3(C(=O)O)CC3)cc2)cc1)c1ccccc1Cl` [Compound 110] the figure was 50 to 500 nM; with `O=C(Nc1ncsc1-c1ccc(-c2ccc(C3(C(=O)O)CC3)cc2)cc1)OCc1ccccc1` [Compound 111], greater than 500 nM. `C[C@@H](OC(=O)Nc1c(Cl)nsc1-c1ccc(-c2ccc(C3(C(=O)O)CC3)cc2)cc1)c1ccccc1` [Compound 112] yielded an EC50 of less than 50 nM. With `C[C@@H](OC(=O)Nc1cnsc1-c1ccc(-c2ccc(C3(C(=O)O)CC3)cc2)cc1)c1ccccc1` [Compound 114] the figure was less than 50 nM; with `Cc1cc(-c2ccc(C3(C(=O)O)CC3)cc2)ccc1-c1snc(C)c1NC(=O)O[C@H](C)c1ccccc1Cl` [Compound 115], less than 50 nM; with `Cc1cc(-c2snc(C)c2NC(=O)O[C@H](C)c2ccccc2Cl)ccc1-c1ccc(C2(C(=O)O)CC2)cc1` [Compound 116], less than 50 nM. With `Cc1nsc(-c2ccc(-c3ccc(C4(C(=O)O)CC4)cc3)c(F)c2)c1NC(=O)O[C@H](C)c1ccccc1Cl` [Compound 117] the figure was less than 50 nM.
